Measured values from patent US7241812B2, “Methods and compositions for modulating sphingosine-1-phosphate (S1P) receptor activity” (Praecis Pharmaceuticals, Inc., priority 2004, dated 2007).

Assays:
[1] = biological target: T1, S1P1 receptor (Homo sapiens, UniProt P21453); assay: Binding to S1P1 receptor, [33P]sphingosine 1-phosphate displacement on membranes of transfected HEK 293 T cells; conditions: 2.5 pM [33P]sphingosine 1-phosphate, 60 minutes at room temperature
T1 construct: expressed in transfected cells; host or cells: HEK 293 T cells (crude membrane preparation)
T1 sequence (P21453 whole entry): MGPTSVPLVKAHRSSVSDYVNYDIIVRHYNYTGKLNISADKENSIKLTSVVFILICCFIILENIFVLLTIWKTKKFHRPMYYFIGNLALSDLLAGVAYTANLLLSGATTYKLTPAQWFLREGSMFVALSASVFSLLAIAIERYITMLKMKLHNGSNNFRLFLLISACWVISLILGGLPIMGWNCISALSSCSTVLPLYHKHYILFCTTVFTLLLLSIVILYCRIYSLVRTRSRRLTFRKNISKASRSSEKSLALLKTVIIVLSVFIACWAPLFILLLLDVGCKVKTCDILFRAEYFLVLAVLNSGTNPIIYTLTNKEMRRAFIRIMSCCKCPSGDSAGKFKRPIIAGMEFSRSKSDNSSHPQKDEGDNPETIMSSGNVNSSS
Method: (§1) The ability of several of the compounds described herein to bind to the S1P1 or S1P3 receptor was also tested as follows.
(§2) For the membrane preparation, plasmid DNA was transfected into HEK 293 T cells using the FuGENE 6 transfection protocol (publicly available by Roche). Briefly, subconfluent monolayers of HEK 293 T cells were transfected with the DNA mixture containing FuGENE 6 (using a 1:3 ratio). The dishes containing the cells were then placed in a tissue culture incubator (5% CO2, 37° C.). The cells were harvested 48 hours after addition of the DNA by scraping in HME buffer (in mM: 20 HEPES, 5 MgCl2, 1 EDTA, pH 7.4, 1 mM PMSF) containing 10% sucrose on ice, and disrupted using a Dounce homogenizer. After centrifugation at 800×g, the supernatant was diluted with HME without sucrose and centrifuged at 17,000×g for 1 hour. This crude membrane pellet was resuspended in HME with sucrose, aliquoted, and snap-frozen by immersion in liquid nitrogen. The membranes were stored at −70 C. Protein concentration was determined spectroscopically by Bradford protein assay.
(§3) For the binding assay, [^33P]sphingosine 1-phosphate (obtained from American Radiolabeled Chemicals, Inc) was added to membranes in 200 μl in 96-well plates with assay concentrations of 2.5 pM [^33P]sphingosine 1-phosphate, 4 mg/ml BSA, 50 mM HEPES, pH 7.5, 100 mM NaCl, 5 mM MgCl2, and 5 μg of protein. Binding was performed for 60 minutes at room temperature with gentle mixing and terminated by collecting the membranes onto GF/B filter plates. After drying the filter plates for 10 minutes, 50 μl of Microscint 40 was added to each well, and filter-bound radionuclide was measured on a Packard Top Count. Nonspecific binding was defined as the amount of radioactivity remaining in the presence of excess of unlabeled S1P.

[2] = biological target: T2, S1P3 receptor (Homo sapiens, UniProt Q99500); assay: Binding to S1P3 receptor, [33P]sphingosine 1-phosphate displacement on membranes of transfected HEK 293 T cells; conditions: 2.5 pM [33P]sphingosine 1-phosphate, 60 minutes at room temperature
T2 construct: expressed in transfected cells; host or cells: HEK 293 T cells (crude membrane preparation)
T2 sequence (Q99500 whole entry): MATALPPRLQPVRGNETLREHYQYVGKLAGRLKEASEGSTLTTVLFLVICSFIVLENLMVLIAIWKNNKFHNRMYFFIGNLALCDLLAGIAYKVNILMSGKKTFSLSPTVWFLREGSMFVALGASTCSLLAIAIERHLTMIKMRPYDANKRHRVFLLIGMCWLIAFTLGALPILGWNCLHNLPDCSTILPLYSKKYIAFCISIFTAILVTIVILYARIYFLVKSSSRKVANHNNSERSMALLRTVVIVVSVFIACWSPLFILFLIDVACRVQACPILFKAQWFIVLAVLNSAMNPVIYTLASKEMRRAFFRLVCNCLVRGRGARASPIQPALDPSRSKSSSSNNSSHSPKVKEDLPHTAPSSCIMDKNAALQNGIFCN
Method: as §1, §2, §3

IC50 [1] [µM] | IC50 [2] [µM] | Structure (SMILES)
2.4 | > 10 | CCCOc1cccc(-c2ccc(NC(=O)[C@@](C)(N)CO)cc2)c1 [compound 144]
0.00084 | 0.16 | CCCCCNC(=O)c1ccc(NC(=O)[C@@H](N)[C@@H](C)O)cc1 [compound 128]
0.24 | 8 | C[C@](N)(CO)C(=O)Nc1ccc(OCCc2ccc(-c3ccc(Cl)cc3)cc2)cc1 [compound 49]
0.012 | 1.04 | CC(N)(CO)C(=O)Nc1ccc(OCCCCc2ccc(C(F)(F)F)cc2)cc1 (centres unmarked) [compound 141]
0.167 | 3.5 | CCCCc1ccc(OC[C@](C)(N)C(=O)Nc2ccc(Oc3ccc(CCCC)cc3)cc2)cc1 [compound 132]
0.15 | > 1 | C[C@](N)(CO)C(=O)Nc1ccc(OCCc2ccc(-c3cccs3)cc2)cc1 [compound 158]
0.023 | 2.15 | COc1ccc(CCCCOc2ccc(NC(=O)[C@@](C)(N)COP(=O)(O)O)cc2)cc1 [compound 110]
> 10 | > 10 | CCCCCCCN(C)C(=O)c1ccc(NC(=O)[C@@H](N)[C@@H](C)O)cc1 [compound 126]
> 10 | > 10 | C[C@](N)(CO)c1ncc(-c2ccc(OCCc3ccc(-c4ccccc4)cc3)cc2)[nH]1 [compound 148]
> 10 | > 10 | Cc1ccccc1-c1ccc(CCOc2ccc(NC(=O)[C@@](C)(N)CO)cc2)cc1 [compound 152]
0.015 | 0.164 | Cc1cc(NC(=O)[C@@](C)(N)CO)ccc1Oc1ccccc1 [compound 124]
0.5 | > 1 | CC(COc1ccc(NC(=O)[C@@](C)(N)CO)cc1)c1ccc(-c2ccccc2)c(F)c1 (some centres unmarked) [compound 160]
2 | – | CCCCCCNC(=O)c1ccc(NC(=O)[C@@H](N)[C@@H](C)O)cc1 [compound 125]
0.021 | > 10 | C[C@](N)(CO)C(=O)Nc1ccc(-c2csc(-c3ccc(-c4ccccc4)cc3)n2)cc1 [compound 154]
0.25 | 5 | CCc1ccc(-c2ccc(CCOc3ccc(NC(=O)[C@@](C)(N)CO)cc3)cc2)cc1 [compound 46]
0.218 | 0.833 | CCc1ccc(OC[C@](C)(N)C(=O)Nc2ccc(Oc3ccc(CC)cc3)cc2)cc1 [compound 131]
0.0013 | – | C[C@](N)(CO)C(=O)Nc1ccc(OCCc2ccc(-c3ccoc3)cc2)cc1 [compound 157]
0.023 | 5 | CCOc1ccc(-c2ccc(CCOc3ccc(NC(=O)[C@@](C)(N)CO)cc3)cc2)cc1 [compound 47]
0.0024 | 0.343 | CCCCCCCCc1ccc(CCC2(N)COP(=O)(O)OC2)cc1 (centres unmarked) [compound 45]

IC50 [1] [µM] | IC50 [2] [µM] | Structure (SMILES)
3.8 | > 10 | C[C@](N)(CO)C(=O)Nc1ccc(Oc2ccc(Cl)cc2)cc1 [compound 138]
0.0179 | 6.33 | C[C@](N)(CO)C(=O)Nc1ccc(Oc2ccccc2)cc1 [compound 129]
0.008 | 0.315 | COc1cccc(-c2ccc(NC(=O)[C@@](C)(N)CO)cc2)c1 [compound 142]
0.166 | 0.13 | C[C@](N)(CO)C(=O)Nc1ccc(-c2cccc(OCc3ccccc3)c2)cc1 [compound 147]
0.0034 | 2 | CC(C)Oc1cccc(-c2ccc(NC(=O)[C@@](C)(N)CO)cc2)c1 [compound 145]
1 | > 10 | COc1ccc(CCOc2ccc(NC(=O)[C@@](C)(N)CO)cc2)cc1OC [compound 34]
0.00055 | 5.03 | CC(C)c1ccc(-c2ccc(CCOc3ccc(NC(=O)[C@@](C)(N)CO)cc3)cc2)cc1 [compound 150]
0.65 | > 10 | CCCCc1ccc(Oc2ccc(NC(=O)[C@@](C)(N)CO)cc2)cc1 [compound 133]
> 10 | > 10 | C[C@](N)(CO)C(=O)Nc1ccc(OCCc2cccc(-c3ccccc3)c2)cc1 [compound 155]
0.09 | > 10 | C[C@](N)(COc1ccccc1)C(=O)Nc1ccc(Oc2ccccc2)cc1 [compound 130]
4 | > 10 | CCCCCCCCc1ccc(OC2CN[C@H](CO)C2)cc1 (some centres unmarked) [compound 137]
2 | > 10 | C[C@](N)(COP(=O)(O)O)C(=O)Nc1ccc(-c2cnn(Cc3ccccc3)c2)cc1 [compound 105]
0.0035 | 0.05 | COc1cccc(Oc2ccc(NC(=O)[C@@](C)(N)CO)cc2)c1 [compound 59]
0.006 | 3.25 | C[C@](N)(CO)C(=O)Nc1ccc(OCCc2ccc(-c3ccncc3)cc2)cc1 [compound 156]
0.0008 | 0.285 | C[C@](N)(CO)C(=O)Nc1ccc(OCc2ccc(-c3ccccc3)cc2)cc1 [compound 153]
0.056 | 0.059 | CCCCCCCc1ccc(C(=O)N[C@@H](C)CO)cc1 [compound 127]
0.0221 | 2.5 | CCCCOc1ccc(Oc2ccc(NC(=O)[C@@](C)(N)CO)cc2)cc1 [compound 135]
0.114 | 1.2 | CCc1ccc(Oc2ccc(NC(=O)[C@@](C)(N)CO)cc2)cc1 [compound 134]
0.0025 | 0.22 | C[C@](N)(CO)C(=O)Nc1ccc(Oc2ccc(F)cc2)cc1 [compound 139]
